Results published in patent US7300939B2, “Substituted 1-propiolylpiperazine compounds, their preparation and use” (Gruenenthal GmbH, priority 2005, dated 2007).
Counter-ions that a name gives are not always drawn.

Tests used:
mGluR5 receptor [1] = molecular target: T1, mGluR5 receptor (Sus scrofa, UniProt I3LUI7); assay: [3H]-MPEP binding in the mGluR5 receptor binding assay (pig brain homogenate); conditions: for mGluR5-receptor (% inhibition 10 μM) in pigs: pig brain homogenate, 5 nM [3H]-MPEP
T1 construct: from tissue; host or cells: pig brain halves without medulla, cerebellum and pons
T1 sequence (I3LUI7 19-1212): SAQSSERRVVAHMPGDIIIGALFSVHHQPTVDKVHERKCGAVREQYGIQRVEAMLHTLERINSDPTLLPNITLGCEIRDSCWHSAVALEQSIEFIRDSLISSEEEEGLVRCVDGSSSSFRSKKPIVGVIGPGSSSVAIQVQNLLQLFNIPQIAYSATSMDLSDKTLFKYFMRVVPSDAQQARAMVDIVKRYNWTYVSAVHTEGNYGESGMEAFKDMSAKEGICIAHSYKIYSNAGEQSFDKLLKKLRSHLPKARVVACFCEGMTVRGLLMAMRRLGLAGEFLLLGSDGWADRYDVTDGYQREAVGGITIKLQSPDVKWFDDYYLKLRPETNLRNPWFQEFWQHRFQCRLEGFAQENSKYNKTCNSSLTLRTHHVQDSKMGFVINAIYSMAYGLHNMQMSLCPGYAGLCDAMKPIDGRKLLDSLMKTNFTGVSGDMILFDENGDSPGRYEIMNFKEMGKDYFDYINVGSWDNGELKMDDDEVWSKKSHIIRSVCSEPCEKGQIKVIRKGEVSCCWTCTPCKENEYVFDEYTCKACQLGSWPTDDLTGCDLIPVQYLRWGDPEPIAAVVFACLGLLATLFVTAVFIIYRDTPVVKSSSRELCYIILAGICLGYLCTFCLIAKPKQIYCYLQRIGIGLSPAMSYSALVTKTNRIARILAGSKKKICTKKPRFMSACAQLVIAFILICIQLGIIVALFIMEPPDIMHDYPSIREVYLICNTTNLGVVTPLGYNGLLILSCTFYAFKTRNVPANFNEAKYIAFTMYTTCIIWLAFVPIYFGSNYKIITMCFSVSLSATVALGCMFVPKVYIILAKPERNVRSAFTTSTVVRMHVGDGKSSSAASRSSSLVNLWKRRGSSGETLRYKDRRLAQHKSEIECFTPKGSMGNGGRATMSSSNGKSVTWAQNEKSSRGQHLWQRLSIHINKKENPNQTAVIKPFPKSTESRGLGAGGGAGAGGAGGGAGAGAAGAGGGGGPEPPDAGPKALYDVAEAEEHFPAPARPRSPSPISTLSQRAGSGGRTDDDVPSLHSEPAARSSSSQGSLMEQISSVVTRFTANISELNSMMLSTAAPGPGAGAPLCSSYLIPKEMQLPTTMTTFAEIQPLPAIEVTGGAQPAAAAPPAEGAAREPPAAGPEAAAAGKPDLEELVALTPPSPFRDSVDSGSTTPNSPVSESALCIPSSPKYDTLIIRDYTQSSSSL
Outline: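 Displacement of 5 nM [3H]-MPEP from pig brain homogenate (450 μg protein, without medulla, cerebellum and pons) in 30 mM HEPES pH 8.0, 60 min at room temperature, compounds tested at 10 μM. Filtration and scintillation counting; non-specific binding defined with 10 μM MPEP.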

rats = assay: Formalin test in rats; assay type: in vivo, rat
mGluR5 receptor [2] = molecular target: T2, mGluR5 receptor (Rattus norvegicus, UniProt P31424); assay: Ca2+ influx in the mGluR5 receptor assay (rat cortical neurons, FlexStation); assay type: cell-based; conditions: Table I; 10 μM DHPG
T2 construct: Cortical neurons are prepared from postnatal rats (P2-6) under sterile conditions; endogenous in cells; host or cells: primary cortical neurons from postnatal rats (P2-6)
T2 sequence (P31424 21-1203): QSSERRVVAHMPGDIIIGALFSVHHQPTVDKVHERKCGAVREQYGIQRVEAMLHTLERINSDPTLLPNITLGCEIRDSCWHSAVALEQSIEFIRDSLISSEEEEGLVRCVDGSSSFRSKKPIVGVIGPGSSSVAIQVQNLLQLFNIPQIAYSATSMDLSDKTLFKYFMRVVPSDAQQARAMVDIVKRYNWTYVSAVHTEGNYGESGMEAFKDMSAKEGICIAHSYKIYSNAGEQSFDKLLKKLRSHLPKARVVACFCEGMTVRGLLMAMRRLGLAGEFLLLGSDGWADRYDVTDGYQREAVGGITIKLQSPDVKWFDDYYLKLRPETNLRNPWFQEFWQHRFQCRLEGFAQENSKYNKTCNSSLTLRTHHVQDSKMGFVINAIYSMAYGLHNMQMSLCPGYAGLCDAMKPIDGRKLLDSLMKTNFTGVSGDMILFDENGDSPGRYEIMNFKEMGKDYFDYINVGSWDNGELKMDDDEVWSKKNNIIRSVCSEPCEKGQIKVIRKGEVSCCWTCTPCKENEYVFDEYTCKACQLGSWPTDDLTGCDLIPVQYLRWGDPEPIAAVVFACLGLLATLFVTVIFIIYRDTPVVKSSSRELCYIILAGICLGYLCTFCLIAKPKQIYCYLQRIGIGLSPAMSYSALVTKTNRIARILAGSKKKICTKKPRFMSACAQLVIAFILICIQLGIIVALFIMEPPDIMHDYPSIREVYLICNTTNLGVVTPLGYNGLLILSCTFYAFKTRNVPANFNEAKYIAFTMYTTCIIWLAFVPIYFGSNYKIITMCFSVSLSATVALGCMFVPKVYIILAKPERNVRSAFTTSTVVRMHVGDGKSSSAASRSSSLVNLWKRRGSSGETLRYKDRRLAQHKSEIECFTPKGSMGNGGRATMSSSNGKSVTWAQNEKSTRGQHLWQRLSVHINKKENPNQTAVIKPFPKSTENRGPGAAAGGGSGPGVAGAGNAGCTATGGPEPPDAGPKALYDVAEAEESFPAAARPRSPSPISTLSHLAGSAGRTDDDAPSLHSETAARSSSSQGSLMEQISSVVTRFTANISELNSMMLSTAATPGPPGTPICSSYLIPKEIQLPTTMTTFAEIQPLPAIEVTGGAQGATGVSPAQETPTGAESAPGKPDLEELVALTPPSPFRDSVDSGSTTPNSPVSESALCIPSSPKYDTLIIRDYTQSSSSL
Source text: II. Method Determination of the Ca^2+ Influx in the mGluR5 Receptor Assay
An agonistic and/or antagonistic action of substances can be determined with the following assay on the mGluR5 receptor of the rat species. According to this assay, the intracellular release of Ca^2+ after activation of the mGluR5 receptor is quantified with the aid of a Ca^2+-sensitive dyestuff (Fluo-4 type, Molecular Probes Europe BV, Leiden, Holland) in a FlexStation (Molecular Devices, Sunnyvale, USA).
Preparation of Cortical Neurons: […]
For the functional investigation, the cells are loaded with 2 μM of Fluo-4 and 0.01 vol. % Pluronic F127 (Molecular Probes Europe BV, Leiden, Holland) in HBSS buffer solution (Hank's buffer saline solution, Gibco Invitrogen GmbH, Karlsruhe, Germany) 30 min at 37° C. […] The Ca^2+-dependent fluorescence is measured before and after the addition of substances (λex=485 nm, λem=525 nm). Quantification is effected by measurement of the highest fluorescence intensity over time. […] After incubation 3 minutes, 10 μM of DHPG ((S)-3,5-dihydroxyphenylglycine, Tocris Biotrend Chemikalien GmbH, Cologne, Germany) are applied and the influx of Ca^2+ is determined simultaneously. mGluR5 antagonists led to a suppression of the Ca^2+ influx. […]

Compound | mGluR5-receptor (% inhibition 10 μM) in pigs (mGluR5 receptor [1]) [%] | IC50 (mGluR5 receptor [1]; Table II, unit inferred) [nM] | further results
O=C(C#Cc1cccc(Cl)c1)N1CCN(c2nccs2)CC1 [Example AAA24, 4-(Thiazol-2-yl)-1-(3-(3-chlorophenyl)propiolyl)piperazine] | 88 |  | Reduction of nociceptive behavior of rats compared with control rats [%] (rats; 46.4 mg/kg i.p.): 43%
Cc1cccc(C#CC(=O)N2CCN(c3nccs3)CC2C)c1 (stereo not shown) [Example AAA68, 2-Methyl-4-(thiazol-2-yl)-1-(3-(3-tolyl)propiolyl)piperazine] |  | 13 | Reduction of nociceptive behavior of rats compared with control rats [%] (rats; 46.4 mg/kg p.o.): 66%
O=C(C#Cc1ccccc1)N1CCN(c2nccs2)CC1 [Example AAA56, 4-(Thiazol-2-yl)-1-(3-phenylpropiolyl)piperazine hydrochloride] |  | 150 | Reduction of nociceptive behavior of rats compared with control rats [%] (rats; 46.4 mg/kg i.p.): 85%
O=C(C#Cc1ccccc1)N1CCN(c2nccs2)CC1 [Example 1, 1-(3-phenylpropiolyl)-4-(thiazol-2-yl)piperazine] |  |  | IC50 (mGluR5 receptor [1]; Table I): 100 nM; IC50 (mGluR5 receptor [2]): 190 nM
Cc1cccc(C#CC(=O)N2CCN(c3nccs3)CC2)c1.Cl [Example AAA54, 4-(Thiazol-2-yl)-1-(3-(3-tolyl)propiolyl)piperazine hydrochloride] | 97 |  | Reduction of nociceptive behavior of rats compared with control rats [%] (rats; 10.0 mg/kg i.v.): 72%
O=C(C#Cc1ccccc1)N1CCN(c2ncc(Br)s2)CC1 [Example AAA96, 4-(5-Bromothiazol-2-yl)-1-(3-phenylpropiolyl)piperazine] |  | 360 | 
O=C(C#Cc1ccccc1)N1CCN(c2nc(C(F)(F)F)ns2)CC1 [Example AAA00105, 4-(3-Trifluoromethyl-1,2,4-thiadiazol-5-yl)-1-(3-phenylpropiolyl)piperazine] | 65 |  | 
CC1CN(c2nccs2)CCN1C(=O)C#Cc1cccc(Cl)c1 (stereo not shown) [AAA00119, 2-Methyl-4-(thiazol-2-yl)-1-(3-(3-chlorophenyl)propiolyl)piperazine] |  | 9 | 
